Experimental data from US20240269067A1 (GEL4MED, INC., priority 2020, published 2024).

Assay: Net charge and isoelectric point of peptide
Assay type: physicochemical
Conditions: pH 7
Text: The peptide may be purified. For example, the peptide may be lyophilized. […] Other peptides are within the scope of the disclosure.
Exemplary peptides having a charge of +5 to +9 include […](d)[…], […](d)[…], and […](d)[…]. In other embodiments, the purified peptide may be substantially neutral. […] Net charge may be selected by peptide design. Design of electrostatic charge in the peptide hydrogel may allow control of charge interaction with cell membrane and proteins.

With VEVSVSVEV(d)PPTEVSVEVEV the net charge was “net negative charge”.
